Structures are written as SMILES.

For one molecule, IC50 results are on record in paper doi:10.1101/2025.02.22.639610v1, “Excavating Podocyte-Protective Targets of phloroglucinol-terpene hybrids Utilizing AI Models and Omics Analysis” (biorxiv, 2025).

This experiment addresses T1, EGFR^WT kinase (Homo sapiens, UniProt P00533).
T1 construct: commercial wild-type EGFR kinase (Sigma Aldrich)
The experiment in a line: HTRF KinEASE-TK kinase assay. It counts as biochemical. On the technique in general: Time-resolved FRET reads energy transfer from a long-lived donor to a nearby acceptor.

T1 sequence (P00533 25-1210): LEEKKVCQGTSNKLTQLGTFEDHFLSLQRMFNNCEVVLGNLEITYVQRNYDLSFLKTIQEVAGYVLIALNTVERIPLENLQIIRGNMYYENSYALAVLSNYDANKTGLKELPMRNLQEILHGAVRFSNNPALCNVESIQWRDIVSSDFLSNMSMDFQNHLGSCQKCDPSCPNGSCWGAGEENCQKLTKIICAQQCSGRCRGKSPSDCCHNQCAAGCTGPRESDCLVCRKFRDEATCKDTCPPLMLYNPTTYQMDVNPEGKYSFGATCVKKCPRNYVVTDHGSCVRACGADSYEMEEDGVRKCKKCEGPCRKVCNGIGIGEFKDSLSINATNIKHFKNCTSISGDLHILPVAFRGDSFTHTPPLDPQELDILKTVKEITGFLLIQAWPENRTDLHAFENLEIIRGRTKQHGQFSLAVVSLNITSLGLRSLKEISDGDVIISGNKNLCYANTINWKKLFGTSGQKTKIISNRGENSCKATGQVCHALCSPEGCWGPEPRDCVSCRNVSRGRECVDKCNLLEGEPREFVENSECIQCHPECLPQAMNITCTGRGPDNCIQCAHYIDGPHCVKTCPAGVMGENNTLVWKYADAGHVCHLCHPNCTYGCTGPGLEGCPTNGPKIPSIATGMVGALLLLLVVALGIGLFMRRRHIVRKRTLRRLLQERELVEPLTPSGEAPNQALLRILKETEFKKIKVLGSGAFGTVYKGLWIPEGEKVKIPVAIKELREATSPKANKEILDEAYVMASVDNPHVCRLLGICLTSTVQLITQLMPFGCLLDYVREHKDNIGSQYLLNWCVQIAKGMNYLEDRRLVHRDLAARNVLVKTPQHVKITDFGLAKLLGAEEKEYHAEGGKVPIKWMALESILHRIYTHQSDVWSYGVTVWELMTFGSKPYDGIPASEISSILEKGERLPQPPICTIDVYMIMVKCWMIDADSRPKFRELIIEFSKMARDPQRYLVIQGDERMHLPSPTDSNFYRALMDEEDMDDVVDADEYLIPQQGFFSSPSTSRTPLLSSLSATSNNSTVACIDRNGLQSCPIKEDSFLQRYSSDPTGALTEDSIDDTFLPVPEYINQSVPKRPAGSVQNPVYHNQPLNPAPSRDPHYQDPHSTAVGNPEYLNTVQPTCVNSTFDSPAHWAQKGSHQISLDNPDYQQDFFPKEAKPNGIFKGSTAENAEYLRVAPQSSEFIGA

Turning to `C=C(C)[C@H]1C=C2[C@H](C)CC[C@H](Cc3c(O)c(C=O)c4c(c3O)C(=O)CC(C)(C)O4)[C@@]2(C)CC1` [R14, Eucarbwenstols D], the IC50 came out at 191 nM.

A word on the IC50: it is the concentration needed to halve the response being measured. A lower IC50 goes with inhibition by little substance.
